Assays:
HDAC2 = HDAC2 (Homo sapiens, UniProt Q92769); experiment: Immunoblot HDAC2 degradation in MM.1S cell lysates; assay type: cell-based; parameters: endogenous in cells; host or cells: MM.1S; settings: MM1.S, MM.1S cells, 24 h, read-out: maximal degradation (Dmax) HDAC2
Description: Figure 6 Examination of HDAC isoform degradation. MM.1S cells were treated with the indicated compounds (10 μM) or vehicle (DMSO) for 24 h. HDAC1, 2, 4, and 6 levels were analyzed by immunoblotting. (A) Representative images from a total of n=3 biological replicates. […]
The cell lysis was performed as descripted in 3.2. Simple Western Immunoassay. Samples were denatured by Laemmli 2× Concentrate (Catalog# S3401-10VL, Sigma-Aldrich) for 5 min at 95 °C, and Precision Plus Protein Unstained Standard was used as molecular weight marker (Catalog# 1610363, Bio-Rad, Hercules, CA, USA). SDS-PAGE was performed with 10 or 12% Mini-PROTEAN TGX Stain-Free Gel (Catalog# 458035, Bio -Rad) at 200 V for 50 min (Catalog# 458035, Bio -Rad).
Afterwards, proteins were transferred with the Trans -Blot Turbo Transfer System (Catalog# 1704150, Bio-Rad) to Immobilon-FL PVDF membranes (Catalog# IPFL00005, Mill ipore Merck, Burlington, MA, USA) at 1.0 A for 30 min and treated with 5% milk-powder solution for 1 h at room temperature under slight agitation. […] The ChemiDoc XRS+ System (Catalog# 1708265 , Bio-Rad) was used for detection and Image Lab Software 6.1 (Bio-Rad) for quantification. […]

MDA-MB-231 cells = experiment: Clonogenic growth assay; assay type: cell-based, human; settings: 10 μM for 48 h, nine days of growth
Description: Figure 9 Clonogenic growth assay of DCAF11‐recruiting PROTACs. MDA‐MB‐231 cells were treated with 10 μM of the respective compound or vehicle (DMSO) for 48 hours. (A) Representative images of crystal violet stained colonies after nine days of growth. (B) Quantification of counted colonies, presented as mean ± standard deviation of three biological replicates, each performed in triplicates. Significance of quantification compared to vehicle: ns=p≥0.05; **=p≤0.01 and ***=p≤0.001. […]
Subsequently, cells were harvested and
plated in 6-well plates at a density of 750 cells per well in triplicates. The cell culture medium was
changed after five days. Nine days after plating, the colonies were carefully washed with 500 µL DPBS
and stained with 500 µL crystal violet solution (0.5% in methanol). After 30 minutes of incubation at
room temperature, the wells were gently rinsed with deionized water. After counting the formed
colonies, GraphPad Prism (GraphPad Software) was used for bar graph creation. Significance testing
was performed with a one-way analysis of variance (ANOVA). Dunnett’s post-hoc test was employed
to obtain significance levels of each mean compared to a reference mean value.

HDAC1 = HDAC1 (Homo sapiens, UniProt Q13547); experiment: HDAC enzyme inhibition assay; assay type: biochemical; parameters: purchased BPS Bioscience 50051
Description: Bio-Rad) to Immobilon-FL PVDF membranes (Catalog# IPFL00005, Mill ipore Merck, Burlington, MA, USA) at 1.0 A for 30 min and treated with 5% milk-powder solution for 1 h at room temperature […]
Signaling Technology) antibody solutions in 1:1000 –1:8000 dilutions at 4 °C overnight. […]
Significance testing was performed with a one -way analysis of variance (ANOVA). Dunnett’s post -hoc test was employed to obtain significance levels of each mean compared to a reference mean value.
2.7. HDAC Enzyme Inhibition Assay […]
[4] For test compounds and controls, serial dilutions of the respective DMSO stock solution in DMSO were prepared, and 1.0 μL /well of this serial dilution were transferred […]
into OptiPlate-96 black microplates (PerkinElmer, Waltham, […], USA). A volume of 4 µL/well assay […]
BSA) was added. In the case of HDAC1, 2, and 6, a volume of 35 μL/well of the fluorogenic substrate […]
The total assay volume of 50 μL (max. 2 % DMSO) was incubated at 37 °C for 90 min. Subsequently, 50 μL /well of trypsin (0.4 mg/mL) in trypsin buffer (50 mM Tris−HCl, pH 8.0, 100 mM NaCl) was added, followed by additional 30 min of incubation at […]
OPTIMA microplate reader (BMG labtech, Ortenburg, Germany). The half maximal inhibitory concentration (IC50) was determined by plotting dose response curves and nonlinear regression with GraphPad Prism (GraphPad Software).
2.8. MTT Cell Viability Assay […]

Chain of HDAC2 (Q92769 whole entry, canonical isoform): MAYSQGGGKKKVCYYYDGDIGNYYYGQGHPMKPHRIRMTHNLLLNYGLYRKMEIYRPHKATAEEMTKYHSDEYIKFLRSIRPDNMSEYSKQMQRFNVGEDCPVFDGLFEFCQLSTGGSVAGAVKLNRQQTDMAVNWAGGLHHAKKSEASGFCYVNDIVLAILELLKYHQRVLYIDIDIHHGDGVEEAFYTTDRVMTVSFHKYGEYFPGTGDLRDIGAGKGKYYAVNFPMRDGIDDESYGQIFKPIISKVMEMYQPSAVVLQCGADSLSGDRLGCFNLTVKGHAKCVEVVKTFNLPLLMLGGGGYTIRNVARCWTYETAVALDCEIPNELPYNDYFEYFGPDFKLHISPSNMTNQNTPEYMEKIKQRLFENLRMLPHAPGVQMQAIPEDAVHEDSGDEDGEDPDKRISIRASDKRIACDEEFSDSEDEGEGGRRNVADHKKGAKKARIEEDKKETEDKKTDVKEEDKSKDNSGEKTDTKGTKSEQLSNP
Chain of HDAC1 (Q13547 whole entry): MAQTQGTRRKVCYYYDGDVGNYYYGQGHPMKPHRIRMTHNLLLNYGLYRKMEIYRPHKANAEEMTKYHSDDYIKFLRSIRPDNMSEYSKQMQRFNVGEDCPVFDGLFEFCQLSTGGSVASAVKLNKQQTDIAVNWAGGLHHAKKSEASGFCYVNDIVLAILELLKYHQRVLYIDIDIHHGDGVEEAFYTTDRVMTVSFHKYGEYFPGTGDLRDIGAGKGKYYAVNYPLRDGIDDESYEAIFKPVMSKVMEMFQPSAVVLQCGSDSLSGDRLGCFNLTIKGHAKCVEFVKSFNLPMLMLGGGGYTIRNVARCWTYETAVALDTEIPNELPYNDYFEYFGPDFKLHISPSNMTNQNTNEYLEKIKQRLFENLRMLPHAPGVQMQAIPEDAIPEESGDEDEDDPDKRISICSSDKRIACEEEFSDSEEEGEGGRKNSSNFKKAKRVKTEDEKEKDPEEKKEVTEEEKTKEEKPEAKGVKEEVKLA

Row | SMILES | Dmax at 10 µM (HDAC2) | reduction of colonies (clonogenic growth) (MDA-MB-231 cells) | IC50 (HDAC1)
1 | O=C(CCCCCCNC(=O)c1ccc(N(C(=O)CCl)C(C(=O)NCc2ccccc2)c2ccc(Cl)c(Cl)c2)cc1)NO (stereo not drawn) [Compound 2] | 51% | significant reduction of colonies | 159 ± 44 nM
2 | O=C(CCCCCCNC(=O)c1ccc(NC(=O)CCCCCCCCCCCN(C(=O)CCl)C(C(=O)NCc2ccccc2)c2ccc(Cl)c(Cl)c2)cc1)NO (stereo not drawn) [Compound 1j] | 71 to 76% | significant reduction of colonies | 1030 ± 40 nM

Reference: paper PMC12091851, “Replacing a Cereblon Ligand by a DDB1 and CUL4 Associated Factor 11 (DCAF11) Recruiter Converts a Selective Histone Deacetylase 6 PROTAC into a Pan‐Degrader” (Chemmedchem, 2025)
